The values below come from patent US20130039956A1, “USE OF NITROCARBOXYLIC ACIDS FOR THE TREATMENT, DIAGNOSIS AND PROPHYLAXIS OF AGGRESSIVE HEALING PATTERNS” (priority 2010, published 2013).

In one assay the test system is fibroblasts. The assay is described as follows: Mechanical alteration of fibroblasts (cyclic stretching of coated polypropylene meshes). Further: key: 0: not superior to native FA (control); +: Superior to native FA; ++: superior to both; +++: outstanding effect. To be noted: cyclic stretching, day 7, day 21, 8 weeks, compared with native FA. The assay is classed as cell-based. The source says:
In order to simulate the effects of chronic shear forces on a healing wound, an in vitro model was established. A flat balloon was placed on the bottom of a Petri dish. A silicone sheet was placed above and sealed with the side of the Petri dish. Then a 3 mm agar layer was casted on top of the sheet. Commercially available polypropylene meshes for hernia repair (microporous mesh, a low-weight and macroporous mesh with absorbable polyglactin filaments, and a heavy-weight and microporous mesh) were placed on the agar plates and fixed at 4 points at the side of the Petri dish. This setting enabled stretching of the meshes by filling the balloons with air, which was performed at 10-second intervals using an automated pumping device. The model can be used to evaluate the effect of three-dimensional (3D) shear forces on cell growth during cell cultivation. Preincubated suspensions of fibroblasts (1.5×10(5) cells) in a culture medium (10% FCS) were added to the culture dishes and allowed to grow for 48 hours. Cyclic stretching was started at day 3. Histological analysis was performed from the central portions of the meshes at day 7, at day 21, and after 8 weeks. The scaffolds were detached from the culture plate and carefully rinsed. Then, they were cut into pieces, casted, and further processed for standard histology and immunohistology. Care was taken to achieve a cutting plane that was vertical to the surface plane of the meshes. Histological analysis evaluated the cellularity, the content of extra cellular matrix (ECM), and the magnitude of protein synthesis. Meshes were dip-coated with native and nitro fatty acids or left blank in the same manner as in example 1. The uncoated meshes served as controls.

Assay [1] has as its system canine cutaneous mastocytoma cells. The assay is described as follows: Toxin response of mast cells (mastoparan, Streptolysin O, UVB). The settings on record: preincubation 10 and 100 μmol, compared with native FA. Type of assay: cell-based. Here is the method:
In order to determine membrane stabilizing and anticytotoxic properties of nitrated fatty acids, an in vitro model utilizing canine cutaneous mastocytoma cells was chosen. Cells were cultured according to standard procedure. Cytotoxic effects were quantified by measuring not only by Ca^2+ influx, histamine, and TNFα release, but also by using the MTT assay. Cell suspensions were incubated with 0.9% saline, one of the nitrocarboxylic acids as listed in table 1 or the respective native fatty acid as to achieve a final concentration of 10 and 100 μmol which was given to the medium 15 min before toxin application.
Mastoparan suspended in a buffer solution was added to the preincubated mast cell suspensions to achieve a final concentration of 10 or 30 μmol, respectively. Measurements were performed after 1 hour incubation time. […] Preincubation of mast cells with nitrated fatty acids reduced the effects on Ca^2+ influx, histamine release, and apoptosis induction in a dose-dependent manner, with an almost complete absence of apoptosis at a concentration of 100 μmol.
Streptolysin O was given to preincubated suspensions to achieve a final concentration of 500 ng/ml. Measurements were performed after 2 hours. Releases of histamine and TNFα in the suspensions were measured. After saline preincubation, a significant release of histamine and TNFα was observed.
Cell plates were exposed to a single dose (250 mJ/cm2) of UVB using a lamp (Saalmann, Herford, Germany) emitting most of its energy within the UVB range (295 to 315 nm). Tryptase levels in the supernatants were determined after 30 minutes, and concentrations of TNFα after 60 minutes. After preincubation with saline, there was a marked increase of tryptase. Preincubation with native fatty acids led to a dose-dependent reduction of tryptase release, which was significant at the lower irradiation dose but not after exposure to a high irradiation dose. […] For all nitrated fatty acids that were used the results were mostly inside the same range. Relative differences can be represented as follows: […]

Another assay deals with Cardiomyocytes. Description: TGF-β1-inducible formation of extracellular matrix in cardiomyocytes under shear stress. Further: key: 0: not superior to native FA (control); +: Superior to native FA; ++: superior to both; +++: outstanding effect. To be noted: 10-100 μmol, shear stress up to 100 dyn/cm^2; compared with native FA. The assay is classed as cell-based. Here is the method: Characterizing features of the fibrous remodelling in the heart are accentuated expression and deposition of extracellular matrix proteins (ECM). This has been attributed to increased mechanical forces via autocrine release of transforming growth factor-beta (TGF-beta). […] An established cell culture model was used to investigate the effect of shear stress on cardiomyocytes. Cardiomyocytes were cultured and transferred to a matrigel substrate. Plates with confluenced cells were placed into a shear force injury device (SFID). The SFID design is based on a cone-and-plate construction which is a well-defined rheological model in which a homogenously distributed laminar flow over the surface of the cells is generated by a rotating cone. The conical surface is positioned above a stationary flat plate and the fluid medium between these two surfaces is set in motion by rotating the cone to create a uniform level of fluid shear stress throughout the entire surface of the cells cultured on the coverslips.
A peak shear stress of 100 dyn/cm^2 could be applied without significant cell detachment enabling a maximum injury severity of 46%. Cells were exposed to FCS 1% without or with nitro-fatty acid, and the corresponding native fatty acid in a dosage range between 10 μmol and 100 μmol, 10 seconds before shear force application. Shear force peaks up to 100 dyn/cm^2 with a duration of 30 msec each with a repetition frequency of 60/minute were applied for 5, 10, 30 and 60 minutes. Thereafter the cell plates were washed and placed in FCS 1% for 24 hrs. The supernatant of the shear force investigation as well as that of the following culture phase was analysed. It could be shown that TGF-beta and ECM proteins (collagen I, fibronectin, laminin, elastin) increased after treatment in the control groups.

In a further assay the test system is adult rats. The assay is described as follows: Fibrogenesis after traumatic and thermal tissue damage in dermal wound healing in vivo. Further: key: 0: not superior to native FA (control); +: Superior to native FA; ++: superior to both; +++: outstanding effect. Set-up: species or system rat. To be noted: 100 micromol ethanolic solution on wound margins, 8 weeks, compared with native FA. An excerpt: In order to determine the effects of nitrated fatty acids on fibrogenesis in response to traumatic and thermal tissue damage, an in vivo rat model was investigated. Paravertebral scalpel incision (two on each side) of approximately 1 cm in length and a depth of 1 mm were made in 12 anesthetized adult rats (150-200 g) of either sex after disinfection. Bleeding was stopped by manual compression. The entire length of the wound margins of one incision at each side were additionally cauterized using a 3-mm ball electrode connected to a DRE ASG-120 electrosurgical generator. Wound margins of one side were then covered with a sterile ethanolic 0.9% saline solution, or with a sterile ethanolic solution of the fatty acids (100 micromol), or with a sterile ethanolic solution of the nitrated fatty acids (100 micromol) using a sterile brush. A 1×10 mm cotton string that was bathed in the ethanolic solution containing 0.9% saline, native fatty acid or nitrated fatty acids was placed upon the incision site that had been closed by manual adaptation. The adaptation result and the cotton strings were fixed by an adhesive film. The animals were housed and fed according to institutional standards. The wound films were carefully removed after 2 weeks. Animals were euthanized after 8 weeks. The skin wounds were harvested, including the epidermis, dermis, and subcutaneous loose tissue with the surrounding normal tissue. The removed tissues were fixed in formalin and then embedded in paraffin. The cutting plane was vertical to the longitudinal axis of the former incisions. Slices (4-6 μm) were stained with H&E and Masson trichrome staining to evaluate the amount and density of collagen.

As to “5-nitro-eicosatrienoic acid [compound 4]”, the “Relative effect on fibroblasts under mechanical alteration” value (“Relative effect on fibroblasts” for short) in the assay with fibroblasts was “+”. Also, the “Relative differences: effect on toxin response of mast cells” value (from here on “Relative differences: effect”) in assay [1] is “+”. For the same molecule, in the assay on Cardiomyocytes, the “Relative efficacy to suppress TGF-beta and ECM proteins in cardiomyocytes” value (shortened to “Relative efficacy”) is on record as “+”. In the assay on adult rats, the “Relative effect on fibrogenesis (scar formation) in dermal wound healing” value (“Relative effect on fibrogenesis” below) is on record as “+”.
For 9,10-nitro-cis-oleic acid [compound 10], the “Relative effect on fibroblasts” value in the assay with fibroblasts is on record as “++”. Moreover, in assay [1], the “Relative differences: effect” value is reported as “+++”. In the assay with Cardiomyocytes, the “Relative efficacy” value is recorded as “++”. Besides, the “Relative effect on fibrogenesis” value in the assay on adult rats is reported as “++”.
For the molecule “9,10-nitro-trans-oleic acid [compound 15]”, the “Relative effect on fibroblasts” value in the assay with fibroblasts is given as “+”. For the same molecule, the “Relative differences: effect” value in assay [1] is “++”. Further, in the assay on Cardiomyocytes, the “Relative efficacy” value is reported as “+”. Also, in the assay with adult rats, the “Relative effect on fibrogenesis” value is “+”.
Turning to `CCCCCCCC/C=C(/CCCCCCCC(=O)O)[N+](=O)[O-]` [compound 1, 9-nitro cis-oleic acid], the “Relative effect on fibroblasts” value in the assay on fibroblasts is “+++”. Also, the “Relative differences: effect” value in assay [1] is given as “+++”. In addition, the “Relative efficacy” value in the assay with Cardiomyocytes is recorded as “++”. Also, the “Relative effect on fibrogenesis” value in the assay on adult rats is “++”.
Take `CCCCC/C=C\C/C(=C\CCCCCCCC(=O)O)[N+](=O)[O-]` [compound 2, 10-nitro-cis-linoleic acid]: the “Relative effect on fibroblasts” value in the assay on fibroblasts is “+++”. The “Relative differences: effect” value in assay [1] is on record as “++”. In addition, the “Relative efficacy” value in the assay on Cardiomyocytes is “++”. In addition, in the assay on adult rats, the “Relative effect on fibrogenesis” value is on record as “+++”.
For the molecule `CCCCCCCC/C(=C/CCCCCCCC(=O)O)[N+](=O)[O-]` [compound 3, 10-nitro-cis-oleic acid], the “Relative effect on fibroblasts” value with fibroblasts is “++”. In assay [1], the “Relative differences: effect” value is on record as “+++”. The “Relative efficacy” value in the assay with Cardiomyocytes is reported as “++”. For the same molecule, the “Relative effect on fibrogenesis” value with adult rats was “++”.
For the molecule `CCCCC/C=C(/C/C=C\C/C=C\C/C=C\C/C=C\CCC(=O)O)[N+](=O)[O-]` [compound 5, 16-nitro-all-cis-4,7,10,13,16-docosapentaenoic acid], the “Relative effect on fibroblasts” value in the assay on fibroblasts is given as “++”. Moreover, in assay [1], the “Relative differences: effect” value is “+”. For the same molecule, the “Relative efficacy” value in the assay on Cardiomyocytes was “+”. The “Relative effect on fibrogenesis” value in the assay with adult rats is 0.
`CC/C=C\C/C=C\C/C=C(/CCCCCCCC(=O)O)[N+](=O)[O-]` [compound 6, 9-nitro-all-cis-9-12,15-octadecatrienoic acid]: the “Relative effect on fibroblasts” value in the assay on fibroblasts is “++”. In assay [1], the “Relative differences: effect” value is “++”. In addition, the “Relative efficacy” value with Cardiomyocytes was “+++”. Also, the “Relative effect on fibrogenesis” value with adult rats is listed as “++”.
Consider `CCCCCCCC/C(=C\CCCCCCCC(=O)O)[N+](=O)[O-]` [compound 12, 10-nitro-trans-oleic acid], for which the “Relative effect on fibroblasts” value in the assay with fibroblasts is “+”. In addition, the “Relative differences: effect” value in assay [1] was “++”. Further, in the assay on adult rats, the “Relative effect on fibrogenesis” value came out at 0.
On to `CCCCCC/C=C(/CCCCCCCC(=O)O)[N+](=O)[O-]` [compound 13], for which the “Relative effect on fibroblasts” value with fibroblasts is on record as “+”. Further, the “Relative effect on fibrogenesis” value with adult rats is “+”.
With `CCCCCC=CCC=C(CC=CCC=CCCCC(=O)O)[N+](=O)[O-]` [compound 14, 11-nitro-5,8,11,14-eicosatrienoic acid], the “Relative effect on fibroblasts” value with fibroblasts is recorded as 0. The “Relative efficacy” value in the assay on Cardiomyocytes is given as “+”. For the same molecule, the “Relative effect on fibrogenesis” value with adult rats is listed as “+”.
As for `CCCCCC/C=C(\CCCCCCCC(=O)O)[N+](=O)[O-]` [compound 16, 9-nitro-9-trans-hexadecenoic acid], the “Relative effect on fibroblasts” value with fibroblasts is recorded as “++”. Moreover, the “Relative differences: effect” value in assay [1] is given as “++”. In addition, the “Relative effect on fibrogenesis” value with adult rats is listed as “+”.
`CCCCCCCC/C=C(/CCCCCCCCCCCC(=O)O)[N+](=O)[O-]` [compound 17, 13-nitro-cis-13-docosenoic acid]: the “Relative effect on fibroblasts” value with fibroblasts was “+”. Also, the “Relative differences: effect” value in assay [1] is “+”. Further, the “Relative effect on fibrogenesis” value with adult rats was “+”.
Consider `CCCCC/C=C(/C/C=C\C/C=C(/C/C=C\CCCC(=O)O)[N+](=O)[O-])[N+](=O)[O-]` [compound 18, 8,14-nitro-cis-5,8,11,14-eicosatetraenoic acid], for which the “Relative effect on fibroblasts” value in the assay on fibroblasts is listed as “+”. Moreover, the “Relative differences: effect” value in assay [1] worked out at 0. Moreover, the “Relative effect on fibrogenesis” value with adult rats is listed as “+”.
For `CCC=CCC=C(CC=CCC=CCC=CCC=C(CCC(=O)O)[N+](=O)[O-])[N+](=O)[O-]` [compound 19, 4,16-nitro-docosahexaenoic acid], the “Relative effect on fibroblasts” value in the assay on fibroblasts was “++”. Besides, the “Relative differences: effect” value in assay [1] is 0. For the same molecule, the “Relative effect on fibrogenesis” value in the assay on adult rats is reported as “+”.
As for `CCCCCCCCCCC/C=C(/CCCCC(=O)O)[N+](=O)[O-]` [compound 21, 6-nitro-cis-6-octadecenoic acid], the “Relative effect on fibroblasts” value in the assay on fibroblasts is “+”. Further, the “Relative efficacy” value with Cardiomyocytes is reported as “++”. The “Relative effect on fibrogenesis” value with adult rats was “++”.
